Entries after “also recorded” stand apart in the source; their conditions may differ. Read-outs that look alike come from different tables or passages of the source.
Key:
[1] = target: T1, RHOGDI1-mediated extraction of RAC1 (Homo sapiens, UniProt P52565); experiment: Liposome sedimentation assay: displacement of prenylated GDP-bound RAC1 from liposomes by GST-RHOGDI1; assay type: biochemical; settings: 50 μM compound
T1 construct: made in house; host or cells: RHOGDI1: E. coli; prenylated RAC1: insect cells (TNAO38)
T1 sequence (P52565 1-204): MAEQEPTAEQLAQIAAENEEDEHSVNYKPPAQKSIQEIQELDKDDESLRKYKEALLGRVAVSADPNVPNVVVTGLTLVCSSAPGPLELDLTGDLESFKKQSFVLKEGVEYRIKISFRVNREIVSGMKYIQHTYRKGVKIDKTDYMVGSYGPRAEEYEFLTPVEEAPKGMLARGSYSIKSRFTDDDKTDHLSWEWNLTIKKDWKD
Description: Liposome sedimentation assay
Liposomes were prepared by self-assembly of the lipids (500 μg) containing 20% (w/w) phosphatidylethanolamine, 45% (w/w) phosphatidylcholine, 20% (w/w) phosphatidylserine, 10% (w/w) cholesterol, and 5% (w/w) phosphatidylinositol 4,5-bisphosphate. Liposome assays were performed by mixing, sonicating (20 s with minimal power, 50% off and 50% on) and extruding ([…] filter) the lipids in 300 µl of a buffer, containing 20 mM HEPES-NaOH pH 7.4, 50 mM NaCl, 3 mM DTT, 5 mM MgCl2. 1 µM GerGer-RAC1-GDP was added to the liposomes and incubated for 20 min on ice. 1.5 µM GST‐RHOGDI-1 and the compounds or DMSO were added to the liposome-GerGer-RAC1-GDP complex prior to incubation on ice for 30 min. The samples were centrifuged at 20,000 x g for 30 min at 4 °C. The resulting pellet and supernatant fractions were collected and analyzed by immunoblotting. 10 µl of each sample were loaded on a SDS-PAGE gel for Western blotting. Specific antibodies were used to visualize RAC1, CDC42 and RHOA.
10 µM of GerGer-RAC1-GDP was added to liposomes suspended in flotation assay buffer containing 20 mM HEPES-NaOH pH 7.4, 50 mM M NaCl, 3 mM DTT, 5 mM MgCl2, and incubated for 20 min on ice. The liposomes were prepared by using self-assembling the lipids (500 μg lipids in 300 µl buffer), containing 15% (w/w) phosphatidylethanolamine, 0.5% (w/w) NBD-PE (N-(7-nitrobenz-2-oxa-1,3-diazol-4-yl)-1,2-dihexadecanoyl-sn-glycero-3-phosphoethanolamine, triethylammonium salt), 45% (w/w) phosphatidylcholine, 20% (w/w) phosphatidylserine, 10% (w/w)cholesterol, and 5% (w/w) phosphatidylinositol 4,5-bisphosphate. 15 µM of GST‐RHOGDI-1 and compounds or DMSO was added to liposome-GerGer-RAC1-GDP complex and samples were further incubated on ice for 30 min. The samples were added to 30% (w/v) sucrose solution. […]
The resulting samples were centrifuged at 140000 x g for 1 h at 4 °C. The upper liposome‐ containing phase (detected by fluorescent NDB‐PE) was collected and analyzed by […]

C3H/10T1/2 cells = experiment: Osteoblast differentiation assay (ODA): purmorphamine-induced osteogenesis, alkaline phosphatase luminescence readout; assay type: cell-based, mouse; parameters: key to Osteogenesis IC50: Compounds are marked inactive when no inhibition was observed at the highest test concentration of 30 µM; settings: for IC50: Mus musculus, C3H 10T1/2; for Inhibition of Hh-/purmorphamine-induced osteogenesis (in words): C3H/10T1/2 cells
Description: Supplementary Table S7. Inhibition of osteogenesis assay. C3H10T1/2 cells were incubated with 1.5 µM purmorphamine and compounds or DMSO as a control for 96 h. The activity of alkaline phosphatase was assessed by means of a luminescence readout. Values for cells, which were treated with DMSO and purmorphamine, were set to 100% and data were measured in […]
concentration of 30 µM. All data are mean values of three independent experiments (n = 3) ± […]
Compound Osteogenesis IC50
(1 picture or pasted object on this page, not shown here)
NIH/3T3 cells were obtained from DSMZ, Germany (DSMZ ACC 59) and were cultured in DMEM (high glucose) supplemented with 10% heat-inactivated FCS, 2 mM L -glutamine and 1 mM sodium pyruvate. Shh -LIGHT2 cells (NIH/3T3 cells stably transfected with a Gli-responsive firefly luciferase reporter plasmid and a pRL-TK constituitive Renilla luciferase expression vector)[4] were cultured in the same culturing medium supplemented with 400 μg ml −1 G418 and 150 μg ml −1 Zeocin as selecting agents. The murine osteoblasts C3H/10T1/2 (ATCC CCL-226) were obtained from ATCC, USA and were cultured in DMEM (high glucose) supplemented with 10% heat-inactivated FCS, 6 mM L -glutamine, 1 mM sodium pyruvate. HEK293T cells (ATCC, England) were grown in DMEM containing 10% FBS, 100 U ml −1 penicillin and 0.1 mg ml −1 streptomycin. All cell lines were maintained at 37 °C and 5% CO 2 in a humidified atmosphere. All the cell lines were regularly assayed for mycoplasma and were confirmed to be mycoplasma-free. Transfection of DNA constructs and siRNAs were performed using FuGENE HD (Promega), Lipofectamine® LTX (Invitrogen) and DharmaFECT™ (GE Healthcare) transfection reagent according to the manufacturer’s […]
Osteoblast differentiation assay
The osteoblast differentiation assay was performed by the Compound Management and Screening Center (COMAS) in Dortmund, Germany. C3H/10T1/2 cells were seeded (800 per well) in white 384-well plates or (6000 per well) in 96-well plates. After incubation for 16 h, compounds or DMSO were added to the cells using the acoustic nanoliter dispenser ECHO 520 (Labcyte) and osteogenesis was induced with 1.5 µM purmorphamine. Plates were incubated for 96 h at 37 °C and 5% CO2. Alkaline phosphatase activity was measured by replacing the medium with osteogenesis-lysis buffer (lysis buffer: 100 mM Tris pH 9.5, 250 mM NaCl, 25 mM MgCl2, 1% Triton X-100, sterile filtered) containing 1:100 chemiluminescent substrate CDP-Star® (Promega, 384-well plates: 35 µL, 96-well plates: 50 µL) for one hour in the dark at 25 °C. In 384-well plates, the luminescence was monitored using the Paradigm plate reader (Molecular Devices, USA), whereas Spark plate reader (Tecan, Austria) was used to measure luminescence in 96-well plates. Dose-response analyses were performed for all hit compounds […]
using a three-fold dilution series starting from a concentration of 30 μM. Half-maximal inhibitory concentrations (IC50) were calculated using the Quattro software suite (Quattro Research, Planegg, Germany) or GraphPad Prism 7 (GraphPad, USA).
The effect of test compounds on the viability of C3H/10T1/2 cells was determined by CellTiter-Glo Luminescence cell viability assay (Promega). Cells were treated as described for the osteogenesis assay prior to addition of the CellTiter-Glo® reagent according to manufacturer’s protocol. Compounds causing at least a 50% reduction in the osteogenesis assay and retaining cell viability of at least 80% were considered as hits. Dose-response analyses were performed for all hit compounds using a three-fold dilution series starting from a concentration of 30 μM. Half-maximal inhibitory concentrations (IC50) were calculated using the Quattro software suite (Quattro Research GmbH). […]

[2] = Table S9, purmorphamine-induced, mean, n=3 ± SD, read-out: ODA IC50 ± SD

Row | Compound | Inhibition of RHOGDI1-mediated extraction of RAC1 from liposomes (in words) [1] | IC50 (C3H/10T1/2 cells; Table S7, 1.5 µM purmorphamine, 96 h, mean ± SD, n=3, highest test concentration 30 µM, read-out: Osteogenesis IC50) [µM] | IC50 (C3H/10T1/2 cells; [2]) [µM] | Inhibition of Hh-/purmorphamine-induced osteogenesis (in words) (C3H/10T1/2 cells) | Osteogenesis IC50 (C3H/10T1/2 cells; Table S7, 1.5 µM purmorphamine, 96 h, mean ± SD, n=3, highest test concentration 30 µM)
1 | COC(=O)C1(C(CC(=O)c2ccccc2)c2ccccc2)N=C(c2ccc(Br)cc2)C2C(=O)N(C)C(=O)C21 (stereo not drawn) [7a] | inhibits the extraction of RAC1 | 1.5 ± 0.2 | 1.3 ± 0.3 | – | –
2 | COC(=O)C1(CCC(=O)c2ccc(F)cc2)N=C(c2ccc(Br)cc2)C2C(=O)N(C)C(=O)C21 (stereo not drawn) [7d] | did not inhibit extraction of RAC1 | – | – | abolished activity; also recorded: did not inhibit osteogenesis | inactive
3 | COC(=O)C1(C(CC(=O)c2cccnc2)c2ccccc2)N=C(c2ccc(Br)cc2)C2C(=O)N(C)C(=O)C21 (stereo not drawn) [7l] | inhibited | – | 1.52 ± 0.22 | most potently inhibited | –
